Experimental findings from patent US11702427B2 (priority 2018, dated 2023) are described below.

In this assay the test system is HBsAg. Description: HBsAg assay: inhibition of HBsAg in HepG2.2.15 cells (CLIA immunoassay of supernatant). As to conditions: read-out: sAg EC50; HepG2.2.15 cells; supernatant collected at day 6 after exposure; HBsAg chemiluminescence immunoassay. Format: cell-based, hepatitis B virus (HBV). How it is done:
Inhibition of HBsAg was determined in HepG2.2.15 cells. Cells were maintained in culture medium containing 10% fetal calf serum, […], Glutamine, penicillin/streptomycin. Cells were seeded in 96-well collagen-coated plate at a density of 30,000 cells/well. Serially diluted compounds were added to cells next day at the final DMSO concentration of 0.5%. Cells were incubated with compounds for 2-3 days, after which medium was removed. Fresh medium containing compounds was added to cells for additional 3-4 days. At day 6 after exposure of compounds, supernatant was collected, the HBsAg immunoassay (microplate-based chemiluminescence immunoassay kits, CLIA, Autobio Diagnosics Co., Zhengzhou, China, Catalog #CL0310-2) was used to determine the level of HBsAg according to manufactory instruction. Dose-response curves were generated and the EC50 value (effective concentrations that achieved 50% inhibitory effect) were determined using XLfit software. In addition, cells can be seeded at a density of 5,000 cells/well for determination of cell viability in the presence and absence of compounds by using CellTiter-Glo reagent (Promega). Tables 1-3 show EC50 values obtained by the HBsAg assay for selected compounds.
What is called EC50 is the midpoint of the concentration-response curve. Take `COCCCOc1cc2c(cc1OC)-c1[nH]c(=O)c(C(=O)O)cc1C(C(C)C)C2` (single isomer, unassigned) [Example 2, 5-Isopropyl-9-methoxy-8-(3-methoxypropoxy)-2-oxo-1,2,5,6-tetrahydrobenzo[h]quinoline-3-carboxylic acid]: the EC50 turned out to be 11 nM.

On to `COCCCOc1cc2c(cc1OC)-c1[nH]c(=O)c(C(=O)O)cc1C(C(C)C)C2` (single isomer, unassigned) [Example 3, 5-Isopropyl-9-methoxy-8-(3-methoxypropoxy)-2-oxo-1,2,5,6-tetrahydrobenzo[h]quinoline-3-carboxylic acid], for which the EC50 was 2000 nM.

With `COCCCOc1cc2c(cc1OC)-c1[nH]c(=O)c(C(=O)O)cc1C(C)(C(C)C)C2` (single isomer, unassigned) [Example 7, 5-Isopropyl-9-methoxy-8-(3-methoxypropoxy)-5-methyl-2-oxo-1,6-dihydrobenzo[h]quinoline-3-carboxylic acid], the EC50 was 22 nM.

Turning to `COCCCOc1cc2c(cc1OC)-c1[nH]c(=O)c(C(=O)O)cc1C(C)(C(C)C)C2` (single isomer, unassigned) [Example 8, 5-Isopropyl-9-methoxy-8-(3-methoxypropoxy)-5-methyl-2-oxo-1,6-dihydrobenzo[h]quinoline-3-carboxylic acid], the EC50 came to 2500 nM.

As to `COCCCOc1cc2c(cc1Cl)-c1[nH]c(=O)c(C(=O)O)cc1C(C)(C(C)C)C2` (single isomer, unassigned) [Example 10, 9-Chloro-5-isopropyl-8-(3-methoxypropoxy)-5-methyl-2-oxo-1,6-dihydrobenzo[h]quinoline-3-carboxylic acid], the 50% effective concentration (EC50) is 25 nM.

For the molecule `COCCCOc1cc2c(cc1Cl)-c1[nH]c(=O)c(C(=O)O)cc1C(C)(C(C)C)C2` (single isomer, unassigned) [Example 11, 9-Chloro-5-isopropyl-8-(3-methoxypropoxy)-5-methyl-2-oxo-1,6-dihydrobenzo[h]quinoline-3-carboxylic acid], the concentration giving a half-maximal response (EC50) was determined as 250 nM.

On to `COCCCOc1cc2c(cc1Cl)-c1[nH]c(=O)c(C(=O)O)c(O)c1C(C)(C(C)C)C2` (single isomer, unassigned) [Example 15, 9-Chloro-4-hydroxy-5-isopropyl-8-(3-methoxypropoxy)-5-methyl-2-oxo-1,2,5,6-tetrahydrobenzo[h]quinoline-3-carboxylic acid], for which the EC50 stood at 18 nM.

As for `COCCCOc1cc2c(cc1Cl)-c1[nH]c(=O)c(C(=O)O)c(O)c1C(C)(C(C)C)C2` (single isomer, unassigned) [Example 16, 9-Chloro-4-hydroxy-5-isopropyl-8-(3-methoxypropoxy)-5-methyl-2-oxo-1,2,5,6-tetrahydrobenzo[h]quinoline-3-carboxylic acid], the EC50 turned out to be 2000 nM.

For the molecule `COCCCOc1cc2c(nc1Cl)-c1[nH]c(=O)c(C(=O)O)c(O)c1C(C(C)C)C2` (single isomer, unassigned) [Example 27, 9-Chloro-4-hydroxy-5-isopropyl-8-(3-methoxypropoxy)-2-oxo-1,2,5,6-tetrahydro-1,10-phenanthroline-3-carboxylic acid], the concentration giving a half-maximal response (EC50) is 2 nM.

Regarding `COCCCOc1cc2c(nc1Cl)-c1[nH]c(=O)c(C(=O)O)c(O)c1C(C(C)C)C2` (single isomer, unassigned) [Example 28, 9-Chloro-4-hydroxy-5-isopropyl-8-(3-methoxypropoxy)-2-oxo-1,2,5,6-tetrahydro-1,10-phenanthroline-3-carboxylic acid], the concentration for a half-maximal effect (EC50) was found to be 43 nM.

As for `COCCCOc1cc2c(cc1OC)-c1[nH]c(=O)c(C(=O)O)c(O)c1C(C)(C(C)C)C2` (single isomer, unassigned) [Example 31, 4-Hydroxy-5-isopropyl-9-methoxy-8-(3-methoxypropoxy)-5-methyl-2-oxo-1,2,5,6-tetrahydrobenzo[h]quinoline-3-carboxylic acid], the concentration giving a half-maximal response (EC50) was found to be 27 nM.

Take `COCCCOc1cc2c(cc1OC)-c1[nH]c(=O)c(C(=O)O)c(O)c1C(C)(C(C)C)C2` (single isomer, unassigned) [Example 32, 4-Hydroxy-5-isopropyl-9-methoxy-8-(3-methoxypropoxy)-5-methyl-2-oxo-1,2,5,6-tetrahydrobenzo[h]quinoline-3-carboxylic acid]: the EC50 stood at 10000 nM.

Consider `COCCCOc1cc2c(nc1OC)-c1[nH]c(=O)c(C(=O)O)c(O)c1C(C(C)C)C2` (single isomer, unassigned) [Example 34, 4-Hydroxy-5-isopropyl-9-methoxy-8-(3-methoxypropoxy)-2-oxo-1,2,5,6-tetrahydro-1,10-phenanthroline-3-carboxylic acid], for which the concentration for a half-maximal effect (EC50) came to 3 nM.

Consider `COCCCOc1cc2c(nc1OC)-c1[nH]c(=O)c(C(=O)O)c(O)c1C(C(C)C)C2` (single isomer, unassigned) [Example 35, 4-Hydroxy-5-isopropyl-9-methoxy-8-(3-methoxypropoxy)-2-oxo-1,2,5,6-tetrahydro-1,10-phenanthroline-3-carboxylic acid], for which the half-maximal effective concentration (EC50) turned out to be 150 nM.

Regarding `COCCCOc1cc2c(nc1OC)-c1[nH]c(=O)c(C(=O)O)c(O)c1C(C(C)(C)C)C2` (single isomer, unassigned) [Example 37, 5-(tert-Butyl)-4-hydroxy-9-methoxy-8-(3-methoxypropoxy)-2-oxo-1,2,5,6-tetrahydro-1,10-phenanthroline-3-carboxylic acid], the EC50 worked out at 1 nM.

`COCCCOc1cc2c(nc1OC)-c1[nH]c(=O)c(C(=O)O)c(O)c1C(C(C)(C)C)C2` (single isomer, unassigned) [Example 38, 5-(tert-Butyl)-4-hydroxy-9-methoxy-8-(3-methoxypropoxy)-2-oxo-1,2,5,6-tetrahydro-1,10-phenanthroline-3-carboxylic acid]: the EC50 turned out to be 35 nM.

Turning to `CCOc1nc2c(cc1OCCCOC)CC(C(C)C)c1c-2[nH]c(=O)c(C(=O)O)c1O` (single isomer, unassigned) [Example 40, 9-Ethoxy-4-hydroxy-5-isopropyl-8-(3-methoxypropoxy)-2-oxo-1,2,5,6-tetrahydro-1,10-phenanthroline-3-carboxylic acid], the concentration for a half-maximal effect (EC50) worked out at 87 nM.

Consider `CCOc1nc2c(cc1OCCCOC)CC(C(C)C)c1c-2[nH]c(=O)c(C(=O)O)c1O` (single isomer, unassigned) [Example 41, 9-Ethoxy-4-hydroxy-5-isopropyl-8-(3-methoxypropoxy)-2-oxo-1,2,5,6-tetrahydro-1,10-phenanthroline-3-carboxylic acid], for which the 50% effective concentration (EC50) was 1 nM.

As for `COCCCOc1cc2c(nc1OC)-c1[nH]c(=O)c(C(=O)O)cc1C(C(C)C)C2` (single isomer, unassigned) [Example 44, 5-Isopropyl-9-methoxy-8-(3-methoxypropoxy)-2-oxo-1,2,5,6-tetrahydro-1,10-phenanthroline-3-carboxylic acid], the EC50 amounted to 2 nM.

Take `COCCCOc1cc2c(nc1OC)-c1[nH]c(=O)c(C(=O)O)cc1C(C(C)C)C2` (single isomer, unassigned) [Example 45, 5-Isopropyl-9-methoxy-8-(3-methoxypropoxy)-2-oxo-1,2,5,6-tetrahydro-1,10-phenanthroline-3-carboxylic acid]: the EC50 is 16 nM.

Turning to `COCCCOc1cc2c(nc1OC)-c1[nH]c(=O)c(C(=O)O)cc1C(C(C)(C)C)C2` (single isomer, unassigned) [Example 47, 5-(tert-Butyl)-9-methoxy-8-(3-methoxypropoxy)-2-oxo-1,2,5,6-tetrahydro-1,10-phenanthroline-3-carboxylic acid], the EC50 was 1 nM.

As for `COCCCOc1cc2c(nc1OC)-c1[nH]c(=O)c(C(=O)O)cc1C(C(C)(C)C)C2` (single isomer, unassigned) [Example 48, 5-(tert-Butyl)-9-methoxy-8-(3-methoxypropoxy)-2-oxo-1,2,5,6-tetrahydro-1,10-phenanthroline-3-carboxylic acid], the concentration for a half-maximal effect (EC50) is 42 nM.

Consider `COCCCOc1cc2c(nc1OC)-c1[nH]c(=O)c(C(N)=O)c(O)c1C(C(C)(C)C)C2` (single isomer, unassigned) [Example 60, 5-(tert-Butyl)-4-hydroxy-9-methoxy-8-(3-methoxypropoxy)-2-oxo-1,2,5,6-tetrahydro-1,10-phenanthroline-3-carboxamide], for which the EC50 was found to be 2 nM.

For `COCCCOc1cc2c(nc1OC)-c1[nH]c(=O)c(C(N)=O)c(O)c1C(C(C)(C)C)C2` (single isomer, unassigned) [Example 61, 5-(tert-Butyl)-4-hydroxy-9-methoxy-8-(3-methoxypropoxy)-2-oxo-1,2,5,6-tetrahydro-1,10-phenanthroline-3-carboxamide], the half-maximal effective concentration (EC50) is 300 nM.

With `COCCCOc1cc2c(nc1Cl)-c1[nH]c(=O)c(C(=O)O)c(O)c1C(C(C)C)CO2` (single isomer, unassigned) [Example 75, 2-Chloro-8-hydroxy-7-isopropyl-3-(3-methoxypropoxy)-10-oxo-6,7,10,11-tetrahydrooxepino[3,2-b:4,5-b′]dipyridine-9-carboxylic acid], the EC50 turned out to be 22 nM.

For the molecule `COCCCOc1cc2c(nc1Cl)-c1[nH]c(=O)c(C(=O)O)c(O)c1C(C(C)C)CO2` (single isomer, unassigned) [Example 76, 2-Chloro-8-hydroxy-7-isopropyl-3-(3-methoxypropoxy)-10-oxo-6,7,10,11-tetrahydrooxepino[3,2-b:4,5-b′]dipyridine-9-carboxylic acid], the half-maximal effective concentration (EC50) stood at 560 nM.
